System: Giardia lamblia (WB strain) trophozoites
Assay: Growth of Giardia lamblia trophozoites during 24 hr and 48 hr incubation in vitro (live and dead counts)
Assay type: cell-based
Details: for Reduction of live trophozoites compared to control cultures: 48 hr incubation, n=3
Protocol: Methods for Evaluating the Effect of Ganglioside Enriched Preparation and Ganglioside Fractions on Growth of Giardia lamblia Trophozoites in vitro. The following method was used for preparation of culture medium containing ganglioside. A preparation containing gangliosides was vortexed and sonicated (Sonic 300 Dismembrator™, Artek System Corp.) in 10 ml of TYI-S-33 culture medium, and further diluted by adding 990 ml of culture medium. This stock culture medium containing a known concentration of gangliosides was filtered in succession through Whatman™ No. 1 filter paper, 0.8 μm, 0.45 μm (Milli-Fil-P.F.™ Millipore Corp.), and 0.22 μm (Sterivex-GS™ filters with filling bell, Millipore Corp) filters connected to a peristaltic pump. This stock solution was kept at −30° C. and was diluted on the day of inoculation.
G. lamblia (WB strain) trophozoites were cultured in Diamond's TYI-S-33 (Diamond et al., 1978.). G. lamblia trophozoites (5×10^5) were inoculated in 12.5 cm^2 tissue culture flasks in the total volume of […]. Nutrient stock solution containing gangliosides was diluted to provide a concentration of ganglioside (as N-Acetyl neuraminic acid amounts, NANA) at 0 (control), 0.001, 0.01, 1, 2, and 4 μg/ml. The cultures were incubated for 24 and 48 hr at 37° C. in 5% CO2, and the number of live and dead (no flagellar movement) trophozoites determined using a hemocytometer.
The following method was used for preparation of culture medium containing ganglioside fraction. Total lipids were extracted from the ganglioside enriched preparation using the Folch method (Folch et al., 1957). The ganglioside containing upper phase was transferred and the lower phase was washed once with Folch upper phase solution (chloroform/methanol/water, 3/48/47 by vol.). The combined ganglioside containing fractions were passed through Sep-Pak™ C18 reverse-phase cartridges (Waters Corporation, Milford, Mass., USA), eluted with methanol and chloroform and methanol 2:1 (v/v), and dried completely under vacuum at 23° C. using a rotary evaporator (Williams et al., 1980). Ganglioside (NANA) content was measured as described by Suzuki (1964). Gangliosides were then diluted using the culture medium and filtered as described above.
G. lamblia trophozoites (5×10^5) were incubated for 24 hr and 48 hr with ganglioside fraction at the concentration of 0 (control), 4, 8, 10, 12, 14, 16 and 20 μg/ml in 12.5 cm^2 tissue culture flasks as described above.
In vitro. This study was performed to determine if Fraction A is directly toxic to the parasite. Several dilutions of Fraction A was added to the media at the concentration of 0, 0.001, 0.01, 0, 1, 1, 2, and 4 ug/ml and incubated for 24 hours and 48 hours after inoculation with 500,000 Giardia lamblia trophozoites. […]

## II^(NeuAc)2-LacCer [GD3]
10 μg/ml (NANA)
  Reduction of live trophozoites compared to control cultures: 25%
20 μg/ml (NANA)
  Reduction of live trophozoites compared to control cultures: 55%
48 hour incubation, in words (FIG. 12)
  Live trophozoites as a percent of control versus concentration: decrease as a percent of control in a dose-dependent manner
48 hour incubation, in words (FIG. 13)
  Dead trophozoites as a percentage of live trophozoites versus concentration: increase as a percentage of live trophozoites
